Test results: patent US20240336593A1, “Compound Having Antitumor Activity And Use Thereof” (lnnovStoneTherapeutics Limited, priority 2020, published 2024)
Structures can show the parent of a compound that is named as a salt.

Biological target: PRMT5 (Homo sapiens (Human), UniProt O14744)
Assay: Inhibitory activity against PRMT5 enzyme by radioisotopic method
Assay type: biochemical
Conditions: PRMT5 5 nM, [3H]-SAM 0.3 μM, polypeptide substrate GL-27 100 nM, room temperature
Protocol: Test Example 1. Test on the inhibitory activity of the compounds of the invention against PRMT5 enzyme by radioisotopic method
Test method: A 1× enzyme reaction buffer (10 mM Tris 8.0 (Sigma, Cat. No. T2694-1L), 0.01% Tween-20 (Sigma, Cat. No. P2287-100 ML), 1 mM DTT (Sigma, Cat. No. D0632-10G)) was prepared. PRMT5 (Active Motif, Cat. No. 31921) and [3H]—SAM (PerkinElmer, Cat. No. NET155V001MC) were added to the 1×enzyme reaction buffer, to prepare a 25/15× mixed solution (PRMT5 final concentration: 5 nM, [3H]—SAM final concentration: 0.3 μM). 15 μL of this solution was transferred into a 384-well microplate (Corning 384-well Polypropylene Storage Microplates, Cat. No. 3657) with various concentrations of the compounds (DMSO final concentration 1%), and incubated at room temperature for 60 minutes. A polypeptide substrate, GL-27 (Ac-[…]-K (Biotin) (GL Biochem, Cat. No. 342095)), was added into the 1×enzyme reaction buffer to prepare a 25/10× substrate solution. Then 10 μL of the polypeptide substrate solution (final concentration of the polypeptide substrate: 100 nM) was added, a reaction was stirred at room temperature for 120 minutes, and then 5 μL 6× ice cold SAM (Sigma, Cat. No. A7007-100 MG) solution was added to stop the reaction (SAM final concentration: 0.125 mM). 25 µL of the reaction mixture was transferred into a FlashPlate (Streptavidin FlashPlate HTS PLUS, High Capacity, 384-well, Perkin Elmer, Cat. No. SMP410A001PK), and incubated at room temperature for 1 h. After washed three times with distilled water containing 0.1% Tween-20, the microplate was read on a MicroBeta reader for CPM data (Counts Per Minute). […] Then the inhibition rate Inh % (Y) corresponding to each concentration (X) was input in EXCEL, and the IC50 value (the half maximal inhibitory concentration) of each compound was calculated with the XLfit plug-in according to the built-in four-parameter fitting equation Y=Bottom+(Top-Bottom)/(1+(IC50/X)[…]).

Sequence of PRMT5 (O14744 whole entry): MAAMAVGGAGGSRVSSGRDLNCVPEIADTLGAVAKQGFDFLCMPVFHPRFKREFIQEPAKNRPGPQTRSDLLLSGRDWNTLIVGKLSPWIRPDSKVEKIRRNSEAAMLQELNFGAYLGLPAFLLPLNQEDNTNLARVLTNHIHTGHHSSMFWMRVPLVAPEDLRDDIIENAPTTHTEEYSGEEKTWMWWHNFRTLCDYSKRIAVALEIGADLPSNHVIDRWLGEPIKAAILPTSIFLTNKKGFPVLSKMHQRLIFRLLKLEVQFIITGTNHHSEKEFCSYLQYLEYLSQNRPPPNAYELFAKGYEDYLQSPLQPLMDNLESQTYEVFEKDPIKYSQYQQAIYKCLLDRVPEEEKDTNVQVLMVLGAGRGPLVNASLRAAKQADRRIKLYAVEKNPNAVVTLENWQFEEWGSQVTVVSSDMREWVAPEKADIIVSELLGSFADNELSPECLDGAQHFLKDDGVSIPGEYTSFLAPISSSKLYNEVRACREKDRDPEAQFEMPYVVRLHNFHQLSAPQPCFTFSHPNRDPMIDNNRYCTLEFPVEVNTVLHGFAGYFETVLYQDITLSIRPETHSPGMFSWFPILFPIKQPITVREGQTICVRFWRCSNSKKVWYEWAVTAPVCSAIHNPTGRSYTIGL
Sequence of PRMT5 (Q9BQA1 whole entry partner): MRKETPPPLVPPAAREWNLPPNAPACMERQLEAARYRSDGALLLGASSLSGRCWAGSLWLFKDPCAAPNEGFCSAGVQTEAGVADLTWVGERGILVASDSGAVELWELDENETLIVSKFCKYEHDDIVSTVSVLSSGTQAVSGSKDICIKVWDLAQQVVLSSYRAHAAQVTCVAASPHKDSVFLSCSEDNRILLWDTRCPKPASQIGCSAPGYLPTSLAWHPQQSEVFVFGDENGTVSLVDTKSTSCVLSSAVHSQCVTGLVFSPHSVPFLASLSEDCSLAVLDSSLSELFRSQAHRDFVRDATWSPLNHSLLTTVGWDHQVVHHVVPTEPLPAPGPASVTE

Row | SMILES | IC50 [nM]
1 | Cc1ccc(Nc2cc(N3CC[C@H](N4CCc5ccccc5C4)[C@@H](O)C3)ncn2)cc1 [Example 41, trans-1-(6-((4-methylphenyl)amino)pyrimidin-4-yl)-4-(3,4-dihydroisoquinolin-2(l H)-yl)piperidin-3-ol] | < 100
2 | O[C@H]1CN(c2cc(Nc3ccc(F)cc3)ncn2)CC[C@@H]1N1CCc2ccccc2C1 (relative stereo) [Example 30, trans-4-(3,4-dihydroisoquinolin-2(1H)-yl)-1-(6-((4-fluorophenyl)amino)-pyrimidin-4-yl)piperidin-3-ol] | < 100
3 | CC(=O)N1CCC(Nc2cccc(C(=O)N3CC[C@H](N4CCc5ccccc5C4)[C@@H](O)C3)c2)CC1 (relative stereo) [Example 28, trans-1-(4-((3-(4-(3,4-dihydroisoquinolin-2(1H)-yl)-3-hydroxypiperidine-1-carbonyl)phenyl)amino)piperidin-1-yl)ethan-1-one] | < 100
4 | COc1ccc(Nc2cc(N3CC[C@H](N4CCc5ccccc5C4)[C@@H](O)C3)ncn2)cc1 (relative stereo) [Example 55, trans-4-(3,4-dihydroisoquinolin-2(1H)-yl)-1-(6-((4-methoxyphenyl)amino)pyrimidin-4-yl)piperidin-3-ol] | < 100
5 | COc1cccc(Nc2cc(N3CC[C@H](N4CCc5ccccc5C4)[C@@H](O)C3)ncn2)c1 (relative stereo) [Example 47, trans-1-(6-((3-methoxyphenyl)amino)pyrimidin-4-yl)-4-(3,4-dihydroisoquinolin-2(1H)-yl)piperidin-3-ol] | < 100
6 | Cc1ccccc1Nc1cc(N2CC[C@H](N3CCc4ccccc4C3)[C@@H](O)C2)ncn1 (relative stereo) [Example 46, trans-1-(6-((2-methylphenyl)amino)pyrimidin-4-yl)-4-(3,4-dihydroisoquinolin-2(1H)-yl)piperidin-3-ol] | < 100
7 | O[C@H]1CN(c2cc(Nc3ccccc3F)ncn2)CC[C@@H]1N1CCc2ccccc2C1 (relative stereo) [Example 53, trans-4-(3,4-dihydroisoquinolin-2(1H)-yl)-1-(6-((2-fluorophenyl)amino)pyrimidin-4-yl)piperidin-3-ol] | < 100
8 | CCC(CC)Oc1nc(NC2CCN(C(C)=O)CC2)cc(C(=O)N2CC[C@@H](N3CCc4ccccc4C3)[C@H](O)C2)n1 [Example 141, 1-(4-((6-((3R,4R)-4-(3,4-dihydro-4,4-dideuterium-isoquinolin-2(1H)-yl)-3-hydroxypiperidine-1-carbonyl)-2-(pentane-3-oxy)pyrimidin-4-yl)amino)piperidin-1-yl)-ethan-1-one] | < 100
9 | CC(=O)N1CCC(Nc2cc(C(=O)N3CC[C@@H](N4CCc5ccccc5C4)[C@H](O)C3)nc(SC(C)C)n2)CC1 [Example 155, 1-(4-((6-((3R,4R)-4-(3,4-dihydroisoquinolin-2(1H)-yl)-3-hydroxy-piperidine-1-carbonyl)-2-(isopropylthio)pyrimidin-4-yl)amino)piperidin-1-yl)ethan-1-one hydrochloride] | < 100
10 | O[C@H]1CN(c2cc(Nc3ccccc3)ncn2)CC[C@@H]1N1CCc2ccccc2C1 (relative stereo) [Example 24, trans-4-(3,4-dihydroisoquinolin-2(1H)-yl)-1-(6-(phenylamino)-pyrimidin-4-yl)piperidin-3-ol] | < 100
11 | COc1ccccc1Nc1cc(N2CC[C@H](N3CCc4ccccc4C3)[C@@H](O)C2)ncn1 (relative stereo) [Example 57, trans-4-(3,4-dihydroisoquinolin-2(1H)-yl)-1-(6-((2-methoxyphenyl)amino)pyrimidin-4-yl)piperidin-3-ol] | < 100
12 | O[C@H]1CN(c2cc(Nc3cccc(Cl)c3)ncn2)CC[C@@H]1N1CCc2ccccc2C1 (relative stereo) [Example 43, trans-1-(6-((3-chlorophenyl)amino)pyrimidin-4-yl)-4-(3,4-dihydroisoquinolin-2(1H)-yl)piperidin-3-ol] | < 100
13 | CC(C)(C)c1ccc(Nc2cc(N3CC[C@H](N4CCc5ccccc5C4)[C@@H](O)C3)ncn2)cc1 (relative stereo) [Example 39, trans-1-(6-((4-t-butylphenyl)amino)pyrimidin-4-yl)-4-(3,4-dihydroisoquinolin-2(1H)-yl)piperidin-3-ol] | < 100
14 | O[C@H]1CN(c2cc(Nc3ccc(C4CC4)cc3)ncn2)CC[C@@H]1N1CCc2ccccc2C1 (relative stereo) [Example 38, trans-1-(6-((4-cyclopropylphenyl)amino)pyrimidin-4-yl)-4-(3,4-dihydroisoquinolin-2(1H)-yl)piperidin-3-ol] | < 100

More lines, now with the values ahead:

Row | IC50 [nM] | SMILES
15 | < 100 | CC(=O)N1CCC(Nc2cc(C(=O)N3CC[C@H](N4CCc5ccccc5C4)[C@@H](O)C3)nc(C)n2)CC1 (relative stereo) [Example 111, trans-1-(4-((6-(4-(3,4-dihydroisoquinolin-2(1H)-yl)-3-hydroxypiperidine-1-carbonyl)-2-methylpyrimidin-4-yl)amino)piperidin-1-yl)ethan-1-one]
16 | < 100 | CC(=O)N1CCC(Nc2cc(C(=O)N3CC[C@@H](N4CCc5ccccc5C4)[C@H](O)C3)nc(OC(F)(F)F)n2)CC1 [Example 151, 1-(4-((6-((3R,4R)-4-(3,4-dihydroisoquinolin-2(1H)-yl)-3-hydroxypiperidine-1-carbonyl)-2-(trifluoromethoxy)pyrimidin-4-yl)amino)piperidin-1-yl)ethan-1-one]
17 | < 100 | CC(=O)N1CCC(Nc2cc(C(=O)N3CC[C@H](O)[C@@H](N4CCc5ccccc5C4)CC3)ncn2)CC1 [Example 124, 1-(4-((6-((4S,5S)-4-(3,4-dihydroisoquinolin-2(1H)-yl)-5-hydroxyazepane-1-carbonyl)pyrimidin-4-yl)amino)piperidin-1-yl)ethan-1-one]
18 | < 100 | CC(=O)N1CCC(Nc2cc(C(=O)N3CC[C@H](N4CCc5ccccc5C4)[C@@H](O)C3)nc(N3CCOCC3)n2)CC1 (relative stereo) [Example 144, 1-(4-((6-(trans-4-(3,4-dihydroisoquinolin-2(1H)-yl)-3-hydroxypiperidine-1-carbonyl)-2-morpholinopyrimidin-4-yl)amino)piperidin-1-yl)ethan-1-one]
19 | < 100 | COc1c(F)cccc1Nc1cc(N2CC[C@@H](N3CCc4ccccc4C3)[C@H](O)C2)ncn1 (relative stereo) [Example 88, trans-1-(6-((3-fluoro-2-methoxyphenyl)amino)pyrimidin-4-yl)-4-(3,4-dihydroisoquinolin-2(1H)-yl)piperidin-3-ol]
20 | < 100 | O[C@@H]1CN(c2cc(Nc3cccc(-c4ccccc4)c3)ncn2)CC[C@H]1N1CCc2ccccc2C1 (relative stereo) [Example 74, trans-1-(6-([1,1′-biphenyl]-3-ylamino)pyrimidin-4-yl)-4-(3,4-dihydroisoquinolin-2(1H)-yl)piperidin-3-ol]
21 | < 100 | CCC(CC)Oc1nc(NC2CCN(C(=O)C3CC(F)(F)C3)CC2)cc(C(=O)N2CC[C@@H](N3CCc4ccccc4C3)[C@H](O)C2)n1 [Example 156, (6-((1-(3,3-difluorocyclobutane-1-carbonyl)piperidin-4-yl)amino)-2-(pentan-3-oxy)pyrimidin-4-yl)((3R,4R)-4-(3,4-dihydroisoquinolin-2(1H)-yl)-3-hydroxy-piperidin-1-yl)ketone]
22 | < 100 | N#CC1CCC(Nc2cc(C(=O)N3CC[C@H](N4CCc5ccccc5C4)[C@@H](O)C3)ncn2)CC1 (stereo partly drawn) [Example 138, 4-((6-(trans-4-(3,4-dihydroisoquinolin-2(1H)-yl)-3-hydroxypiperidine-L-carbonyl)pyrimidin-4-yl)amino)cyclohexane-1-carbonitrile]
23 | < 100 | COc1cc(F)ccc1Nc1cc(N2CC[C@H](N3CCc4ccccc4C3)[C@@H](O)C2)ncn1 (relative stereo) [Example 93, trans-4-(3,4-dihydroisoquinolin-2(1H)-yl)-1-(6-((4-fluoro-2-methoxyphenyl)amino)pyrimidin-4-yl)piperidin-3-ol]
24 | < 100 | O[C@H]1CN(c2cc(Nc3ccccc3OC(F)(F)F)ncn2)CC[C@@H]1N1CCc2ccccc2C1 (relative stereo) [Example 84, trans-4-(3,4-dihydroisoquinolin-2(1H)-yl)-1-(6-((2-(trifluoromethoxy)-phenyl)amino)pyrimidin-4-yl)piperidin-3-ol]
25 | < 100 | CC(=O)N1CCC(Oc2cc(C(=O)N3CC[C@@H](N4CCc5ccccc5C4)[C@H](O)C3)ncn2)CC1 (relative stereo) [Example 142, trans-1-(4-((6-(4-(3,4-dihydroisoquinolin-2(1H)-yl)-3-hydroxypiperidine-1-carbonyl)pyrimidin-4-yl)oxy)piperidin-1-yl)ethan-1-one]
26 | < 100 | O=C(c1cc(NC2CCN(CC(F)(F)F)CC2)ncn1)N1CC[C@H](O)[C@@H](N2CCc3ccccc3C2)CC1 [Example 127]
